Consider one compound from patent US20230346995A1, “USE OF ELECTRIC CURRENT OR FIELD TO MANAGE RISK OF INFECTION BY ANTIMICROBIAL-RESISTANT MICROORGANISMS” (THE TRUSTEES OF INDIANA UNIVERSITY, priority 2020, published 2023).

Holding throughout (assay type): cell-based
Assay [1] concerns ketoconazole-resistant Candida albicans ATCC 64124. As to the kind of experiment: Planktonic growth, absorbance at 600 nm. To be noted: YPD broth; ketoconazole 100 μg/ml; versus control. As for the experimental part:
ATCC strain 64124 was maintained at 4° C. on yeast extract peptone dextrose (YPD) (BD™ Difco™) agar plates. Planktonic yeast cultures (seed inoculums) were initiated in 5 ml of YPD broth (BD™ Difco™) from a single colony of the yeast strain. Cells were incubated at 28° C., under shaker conditions (200 rpm) for 24 h, followed by initiation of master inoculums for respective experiments in 5 ml YPD broth (OD600nm ˜0.15). Yeast cells were incubated at 27° C. for all assays, except for hyphal transition experiments. For all assays, ketoconazole (Sigma Aldrich) was used at a final concentration of 100 μg/ml (dissolved in 100% methanol, stored at −20° C.).
The FDA-approved wireless electroceutical dressing (WED) Procellera (Ag—Zn dressing) (Vomaris Innovations Inc.) was the source of electric fields for treating C. albicans cells. This dressing has alternating circular regions of silver and zinc dots placed in proximity of 1 mm to each other generating electric fields in the range of 0.6-0.9 V (Banerjee et al., 2014; Banerjee et al., 2015). […] The effect of wound dressings on planktonic growth was assessed by culturing C. albicans in sterile 15 ml round bottom polypropylene tubes with 5 ml YPD broth in the presence of dressings. […] Post incubation for respective time intervals, 1 ml aliquots were taken from all groups and optical density (absorbance) was measured on a spectrophotometer at 600 nm.

Assay [2] shares this test system. Put plainly: Semi-quantitative analysis of cell wall carbohydrates chitin, beta glucan, mannan. The conditions noted are these: 24 h treatment. The procedure:
Semi-quantitative analysis was performed for cell wall carbohydrates chitin, beta glucan, and mannan. After 24 h treatment, with dressings alone or in combination with ketoconazole, 1 ml yeast cells were washed once with 1 ml 1X PBS followed by chitin staining with Calcofluor White (Sigma Aldrich) (25 μg/ml) for 10 min; beta glucan staining with Aniline Blue (Anaspec) (0.05%) for 15 min; mannan staining with Concanavalin A-Texas Red conjugate (Life Technologies) (25 μg/ml) for 40 min. All stainings were performed under dark condition. Post-staining, cells were washed once with 1 ml 1X PBS and observed under 63X magnification. Microscopic images were used for measuring fluorescence intensities using ZEN blue software.

The test system is the same in assay [3]. As to the kind of experiment: In vitro yeast to hyphae transition assay. The conditions noted are these: after 2 h incubation in hyphae-inducing medium. The procedure:
Transition of C. albicans from yeast form to hyphal form was studied with hyphae inducing conditions (YPD broth with 10% fetal bovine serum and incubation at 37° C., static condition). Cells were cultured in 5 ml hyphae-inducing medium, with or without dressings or ketoconazole. An aliquot of cells (1 ml) was taken from all treatment groups at 6 h and 24 h. Hyphal induction and elongation was monitored microscopically (63X) and imaged at 6 h and 24 h. For hyphal length measurements, aliquots were taken after 2 h in hyphae-inducing medium and images were captured at 20X magnification. Hyphal lengths were measured from these images using Accuview software (50 measurements per experimental group, six biological replicates).

The test system is the same in assay [4]. As to the kind of experiment: Agar lawn assay with embedded dressings. The conditions noted are these: in words.
Description: (§1) An agar lawn assay assessed fungicidal activity. Dressings (2′×2′) were moistened with sterile YPD broth and placed in empty Petri plates with the conducting side of the dressing facing up. One milliliter of log phase C. albicans cells (1×10^8 cells) was thoroughly mixed in sterile molten YPD agar (9 ml) and poured evenly in plates with dressings. […] Plate images were captured and the area of growth inhibition in these plates was calculated with ImageJ software. Metabolic state was assessed by FUN1 staining. […] Post treatments with electroceutical dressings, an aliquot of yeast cells (1×10^8) was taken and washed with 1 ml of 1X PBS followed by treatment with 100 μl FUN®1 (1:1000; freshly diluted in 1X PBS) for 40 min in dark condition. Cells were then washed once with 1 ml of 1X PBS followed by counter staining with 100 μl Calcofluor White (25 μg/ml) for 10 min in dark conditions. Post counter staining cells were again washed with 1 ml 1X PBS, an aliquot of cells was trapped between a cover glass and glass slide and observed at 63X. Images captured at this magnification were analyzed using ZEN blue software to calculate the ratio of red and green fluorescence intensities for two regions of interest (ROI) per image (10 ROIs per group per technical replicate). Three technical replicates were assayed for each experimental group; six biological replicates.
The test system is the same in assay [5]. Put plainly: Ultrastructure analysis (TEM) for cell wall thickness. The conditions noted are these: after 24 h; compared to control cells. As for the experimental part:
Ultrastructure analysis was performed as follows. After 24 h of respective treatments in YPD broth, C. albicans cells were initially fixed overnight with 500 μl 3% glutaraldehyde/0.1 M phosphate buffer; the fixative was changed to same fixative with 0.15% tannic acid for one hour. After three rinses in buffer, the specimens were post-fixed with 1% osmium tetroxide/0.1 M phosphate buffer for one hour and then rinsed multiple times with distilled water, before en bloc staining with 1% uranyl acetate in distilled water for one hour. After multiple rinses in distilled water, standard dehydration followed through a range of 70-100% ethanol, then infiltration with acetone, to 50:50 acetone and embedding resin for 48 hours. Specimens were then embedded with 100% resin (Embed 812, Electron Microscopy Sciences, Hatfield, PA) and polymerized overnight. Sections were cut, 80-85 nm and placed on copper mesh grids and viewed on Transmission Electron Microscope (TEM) (ThermoFisher, Tecnai Spirit, Hillsoboro OR) and images taken with CCD camera (Advanced Microscopy Techniques Danvers MA). Analysis of cell wall thickness was done with TEM images using ImageJ software.

Assay [6] has the same test system. Put plainly: Metabolic state by FUN1 staining. The conditions noted are these: in words.
Description: as §1
Assay [7] has the same test system. As to the kind of experiment: Cell membrane potential changes, DiBAC4(3)/PI staining, flow cytometry. The conditions noted are these: in words; flow cytometry and microscopy. (In general: Flow cytometry measures light scatter and fluorescence of single cells or particles in a stream.)
Description: Cell membrane potential changes were assessed by DiBAC4(3) staining. Candida albicans cells were cultured in liquid media (YPD broth), with or without dressings or ketoconazole. At respective time intervals, an aliquot of cells (1×10^8) was taken and washed with 1 ml 1X PBS followed by treatment with either 200 μl 10 μM DiBAC4(3) [Bis-(1,3-dibutylbarbituric acid) trimethine oxonol] (Anaspec) [for DiBAC4(3) single stained controls] or 10 μM propidium iodide (Sigma Aldrich) [for PI single stained controls] or a combination of both stains. Heat-killed cells (1×10^8; treated at 100° C. for 30 min) and cells treated with Amphotericin B (3 μg/ml) (Sigma
Aldrich) for 6 h were used as controls for dual stain positive and DiBAC4(3) only positive cells, respectively.
Post staining, cells were washed with 1XPBS followed by flow cytometry (with FL1-FITC for DiBAC4(3) and FL2-PE filter for PI) (10,000 events per sample) to assess dual stain positive cells in control and test samples. For flow cytometry, control and treated cells stained only with single fluorescent stains were also run separately to check individual staining patterns. Flow cytometry data were analyzed using FlowJo software and graphically represented. Scatter plots with ratio of fluorescence intensities through FL1-FITC filter and FL2-PE filter were plotted to understand cell membrane depolarization mechanism in treated cells. […]
The test system is the same in assay [8]. Put plainly: Efflux pump activity by Nile Red accumulation assay. To be noted: within 30 min to 3 h of treatment; flow cytometry. As for the experimental part:
Three technical replicates were assayed for each experimental group; six biological replicates.

Turning to `CC(=O)N1CCN(c2ccc(OCC3COC(Cn4ccnc4)(c4ccc(Cl)cc4Cl)O3)cc2)CC1` (centres unmarked) [ketoconazole], in assay [1], the “planktonic growth measured by absorbance at 600 nm” value is on record as “almost equivalent”. Also, in assay [2], the “chitin content (Calcofluor white staining)” value is on record as “increased chitin staining profile”. In addition, in assay [3], the hyphal length measurements entry is recorded as “pseudohyphae formed”. Besides, the “yeast growth in agar lawn assay” value in assay [4] is recorded as “reduction in growth”. The “change in cell wall thickness” value in assay [5] is reported as “thick cell walls”. In addition, the “FUN1 staining outcome (metabolic state, plasma membrane integrity)” value in assay [6] is recorded as “distinct intravacuolar structures”. In addition, in assay [7], the “effect on cell membrane depolarization / damage” value is on record as “did not have any acute or prolonged effect”. In assay [8], the “Nile red accumulation / efflux pump activity” value is listed as “increased efflux pump activity”.
